From patent publication US9611457B2, “Triazine derivatives as differentiation catalysts” (TECHNISCHE UNIVERSITAET WIEN, priority 2011, dated 2017)

Tests used:
[1] = system: Atrial natriuretic factor (ANF) expression, P19 cells; experiment: ANF test (ANF promoter luciferase reporter) in P19 cells; format: cell-based, murine; set-up: key to Evaluation (luminescence in relation to the blank): −: decrease of luminescence compared to the blank value; +: measurable increase; ++: at least 1.5-fold increase; +++: at least 2-fold increase; settings: for fold induction at 1 µM: Mus musculus, 192 h, read-out: Evaluation (luminescence in relation to the blank); for fold induction at 1 µM / Evaluation (luminescence in relation to the blank): P19 cells (**), compound 1 μM in DMSO, 8 days culture, relative to DMSO blank
Description: Atrial natriuretic factor (ANF) or atrial natriuretic peptide (ANP) is a cyclic peptide hormone made up of 28 amino acids, which is predominantly emitted by the muscle cells (myocytes) of the atrium of the heart. It is stored in the atrium as a pro-hormone made of 126 amino acids and is cleaved by serine protease corine into an N-terminal part and the biologically active ANF, which is often used as a cardiac-specific marker protein. In cell differentiation measurements, i.e. in determining the extent to which certain cells have become “cardiac cell-like” by differentiation, often a reporter gene located downstream of the ANF gene is used, as it expression product is easier to detect than the concentration of ANF in a cellular culture, for example, a luciferase gene. Luciferase in an enzyme which catalyzes the oxidation of a luminescent substrate (luciferine). While that happens, light is emitted, and the intensity of that light is correlated with the expression level of ANF and can therefore serve as a measure of ANF expression.
Initial attempts of ANF expression screenings were performed with P19 cells, i.e. murine embryonal carcinoma cells obtained from the ATCC, or C2C12 cells, i.e. a murine myoblast cell line, as models. In preparation, a plasmid was first constructed by amplifying a gene fragment containing a rat ANF promoter region and subcloning it into the PCL3-BV luciferase reporter plasmid of Promega. The P19 cells were temporarily transfected with said plasmid and cultured in Modified Eagle's Medium alpha (MEM-α) with 7.5% neonatal calf serum and 2.5% fetal bovine serum at 37° C. under 5% CO2 in monolayers for 8 days, during which the medium was exchanged three times. The respective compounds were added at about 60% confluence in DMSO as solvents at a concentration of 1 μM or DMSO alone (as a blank). The luminescence of the samples was measured with a Perkin Elmer Victor V 1420 Multilabel Counter. Their increase or decrease in the presence of the compounds of formula (I) is given in Table 1 below in relation to the blank.
The evaluations have the following meanings: • − decrease of luminescence compared to the blank value; • + measurable increase; • ++ at least 1.5-fold increase; • +++ at least 2-fold increase; • * represents C2C12 cells; and • ** represents P19 cells.

Row | SMILES | melting point [°C] | also measured
1 | O=C(O)c1cccc(Nc2nc(Oc3ccccc3)nc(Oc3cccc(Cl)c3)n2)c1 [(30), 3-{[4-(3-chlorophenoxy)-6-phenoxy-1,3,5-triazin-2-yl]amino}benzoic acid] | 227 to 230 | fold induction at 1 µM [1]: ≥ 1.5
2 | COc1ccc(Oc2nc(Nc3cccc(C(=O)O)c3)nc(Oc3ccc(C#N)cc3)n2)cc1 [(38), 3-{[4-(4-cyanophenoxy)-6-(4-methoxyphenoxy)-1,3,5-triazin-2-yl]-amino}benzoic acid] | 240.5 to 242.5 | fold induction at 1 µM [1]: ≥ 1.5
3 | OCc1cccc(Nc2nc(Oc3ccccc3)nc(Oc3ccc(Cl)cc3)n2)c1 [(41), {3-[(4-(4-chlorophenoxy)-6-phenoxy-1,3,5-triazin-2-yl)amino]phenyl}-methanol] | 110.5 to 114 | Evaluation (luminescence in relation to the blank) [1]: −** and (41) (p-chloro): −
4 | COC(=O)c1cccc(Nc2nc(Oc3ccccc3)nc(Oc3cccc(Cl)c3)n2)c1 [(8), 3-{[4-(3-chlorophenoxy)-6-phenoxy-1,3,5-triazin-2-yl]amino}benzoic acid methyl ester] | 151.5 to 156 | fold induction at 1 µM [1]: ≥ 1.5
5 | COc1cc(C=O)ccc1Oc1nc(Nc2cccc(C(=O)O)c2)nc(Oc2ccccc2)n1 [(36), 3-{[4-(4-formyl-2-methoxyphenoxy)-6-phenoxy-1,3,5-triazin-2-yl]-amino}benzoic acid] | 217.5 to 220 | fold induction at 1 µM [1]: ≥ 2; increased ANF expression (peak value) ([1]; P19 cells, 1 μM, relative to blank): more than threefold
6 | COC(=O)c1cccc(Nc2nc(Oc3ccc(C#N)cc3)nc(Oc3ccc(OC)cc3)n2)c1 [(17), 3-{[4-(4-cyanophenoxy)-6-(4-methoxyphenoxy)-1,3,5-triazin-2-yl]-amino}benzoic acid methyl ester] | 132 to 134.5 | –
7 | COC(=O)c1cccc(Nc2nc(Oc3ccc(OC)cc3)nc(Oc3ccc(C=O)cc3OC)n2)c1 [(15), 3-{[4-(4-formyl-2-methoxyphenoxy)-6-(4-methoxyphenoxy)-1,3,5-triazin-2-yl]amino}benzoic acid methyl ester] | 79 to 82 | –
8 | COC(=O)c1cccc(Nc2nc(Oc3ccccc3)nc(Oc3ccccc3)n2)c1 [(6), 3-[(4.6-diphenoxy-1,3,5-triazin-2-yl)amino]benzoic acid methyl ester] | 198 to 199.5 | –
9 | COc1cc(C=O)ccc1Oc1nc(Nc2cccc(C(=O)OC(C)(C)C)c2)nc(Oc2ccccc2)n1 [(26), 3-{[4-(4-formyl-2-methoxyphenoxy)-6-phenoxy-1,3,5-triazin-2-yl]-amino}benzoic acid t-butyl ester] | 76 to 79 | –
10 | OCc1cccc(Nc2nc(Oc3ccccc3)nc(Oc3cccc(Cl)c3)n2)c1 [(42), {3-[(4-(3-chlorophenoxy)-6-phenoxy-1,3,5-triazin-2-yl)amino]phenyl}-methanol] | – | Evaluation (luminescence in relation to the blank) [1]: +** and (42) (m-chloro): +
11 | COc1ccc(Oc2nc(Nc3cccc(C(=O)O)c3)nc(Oc3ccc(C=O)cc3OC)n2)cc1 [(37), 3-{[4-(4-formyl-2-methoxyphenoxy)-6-(4-methoxyphenoxy)-1,3,5-triazin-2-yl]amino}benzoic acid] | 180 to 182 | –
12 | COC(=O)c1cccc(Nc2nc(Oc3ccc(OC)cc3)nc(Oc3ccc(Br)cc3C=O)n2)c1 [(16), 3-{[4-(4-bromo-2-formylphenoxy)-6-(4-methoxyphenoxy)-1,3,5-triazin-2-yl]amino}benzoic acid methyl ester] | 180 | –
13 | COc1ccc(Oc2nc(Nc3cccc(C(=O)OC(C)(C)C)c3)nc(Oc3ccc(C=O)cc3OC)n2)cc1 [(27), 3-{[4-(4-formyl-2-methoxyphenoxy)-6-(4-methoxyphenoxy)-1,3,5-triazin-2-yl]amino}benzoic acid t-butyl ester] | 88 to 106 | –
14 | COC(=O)c1cccc(Nc2nc(Oc3ccccc3)nc(Oc3cccc([N+](=O)[O-])c3)n2)c1 [(13), 3-{[4-(3-nitrophenoxy)-6-phenoxy-1,3,5-triazin-2-yl]amino}benzoic acid methyl ester] | – | Evaluation (luminescence in relation to the blank) [1]: −**
15 | COc1ccc(Oc2nc(Nc3cccc(CO)c3)nc(Oc3ccccc3)n2)cc1 [(45), {3-[(4-(4-methoxyphenoxy)-6-phenoxy-1,3,5-triazin-2-yl)amino]-phenyl}methanol] | – | Evaluation (luminescence in relation to the blank) [1]: +**

The next lines start with results.

Row | melting point [°C] | SMILES | also measured
16 | 137 to 148 | CC(C)(C)OC(=O)c1cccc(Nc2nc(Oc3ccccc3)nc(Oc3cccc([N+](=O)[O-])c3)n2)c1 [(25), 3-{[4-(3-nitrophenoxy)-6-phenoxy-1,3,5-triazin-2-yl]amino}benzoic acid t-butyl ester] | –
17 | 233 to 236.5 | COc1ccc(Oc2nc(Nc3cccc(C(=O)O)c3)nc(Oc3ccccc3)n2)cc1 [(33), 3-{[4-(4-methoxyphenoxy)-6-phenoxy-1,3,5-triazin-2-yl]amino}benzoic acid] | Evaluation (luminescence in relation to the blank) [1]: +**
18 | 150 | N#Cc1ccc(Oc2nc(Nc3cccc(C(=O)O)c3)nc(Oc3ccccc3)n2)cc1 [(34), 3-{[4-(4-cyanophenoxy)-6-phenoxy-1,3,5-triazin-2-yl]amino}benzoic acid] | Evaluation (luminescence in relation to the blank) [1]: +**
19 | 176.5 to 178.5 | CC(C)(C)OC(=O)c1cccc(Nc2nc(Oc3ccccc3)nc(Oc3ccc(C#N)cc3)n2)c1 [(24), 3-{[4-(4-cyanophenoxy)-6-phenoxy-1,3,5-triazin-2-yl]amino}benzoic acid t-butyl ester] | –
20 | 139 to 141 | CC(C)(C)OC(=O)c1cccc(Nc2nc(Oc3ccccc3)nc(Oc3ccc(C(C)(C)C)cc3)n2)c1 [(22), 3-{[4-(4-t-butylphenoxy)-6-phenoxy-1,3,5-triazin-2-yl]amino}benzoic acid t-butyl ester] | –
21 | 187.5 to 190.5 | CC(C)(C)OC(=O)c1cccc(Nc2nc(Oc3ccccc3)nc(Oc3cccc(Cl)c3)n2)c1 [(20), 3-{[4-(3-chlorophenoxy)-6-phenoxy-1,3,5-triazin-2-yl]amino}benzoic acid t-butyl ester] | –
22 | 191 to 192 | CC(C)(C)OC(=O)c1cccc(Nc2nc(Oc3ccccc3)nc(Oc3ccccc3Cl)n2)c1 [(21), 3-{[4-(2-chlorophenoxy)-6-phenoxy-1,3,5-triazin-2-yl]amino}benzoic acid t-butyl ester] | –
23 | 68 to 70 | COc1ccc(Oc2nc(Nc3cccc(C(=O)OC(C)(C)C)c3)nc(Oc3ccccc3)n2)cc1 [(23), 3-{[4-(4-methoxyphenoxy)-6-phenoxy-1,3,5-triazin-2-yl]amino}benzoic acid t-butyl ester] | –
24 | 208 to 209 | CC(C)(C)OC(=O)c1cccc(Nc2nc(Oc3ccccc3)nc(Oc3ccccc3)n2)c1 [(18), 3-[(4.6-diphenoxy-1,3,5-triazin-2-yl)amino]benzoic acid t-butyl ester] | –
25 | 172.5 to 174 | CC(C)(C)OC(=O)c1cccc(Nc2nc(Oc3ccccc3)nc(Oc3ccc(Cl)cc3)n2)c1 [(19), 3-{[4-(4-chlorophenoxy)-6-phenoxy-1,3,5-triazin-2-yl]amino}benzoic acid t-butyl ester] | –
26 | 161 to 164 | COc1ccc(Oc2nc(Nc3cccc(C(=O)OC(C)(C)C)c3)nc(Oc3ccc(C#N)cc3)n2)cc1 [(28), 3-{[4-(4-cyanophenoxy)-6-(4-methoxyphenoxy)-1,3,5-triazin-2-yl]-amino}benzoic acid t-butyl ester] | –
